Where a SMILES comes first, the peptide text is derived from it. Where no end group is shown, it is not given here. The star is where a group is joined. Myristoyl = CCCCCCCCCCCCCC(=O)*
What was measured:
HL-60 clone 15 cells = assay: PMA-stimulated EPO release from HL-60 clone 15 cells; assay type: cell-based, human; details: 50 μM test peptide, two hour incubation with 100 nM PMA; HL-60 clone 15 cells
Experimental: (§1) Three types of human leukocyte cell lines, specifically the promyelocytic cell line HL-60 clone 15, the monocytic cell line U937, and the lymphocyte natural killer cell line NK-92 were purchased from American Type Culture Collection (ATCC; Rockville, MD). HL-60 clone 15 cells (ATCC CRL-1964) were maintained in medium consisting of RPMI 1640 with L-glutamine supplemented with 10% heat-inactivated fetal bovine serum (Gibco; Invitrogen Co., Carlsbad, CA), 50 IU/ml penicillin, 50 μg/mL streptomycin, and 25 mM HEPES buffer, pH 7.8, at 37° C. in an atmosphere containing 5% CO2. Final differentiation to an eosinophil-like phenotype was initiated by culturing cells at 5×10^5 cells/ml in the above medium containing 0.5 mM butyric acid (Sigma-Aldrich Co.) for 5 days as previously described (Tiffany H L, Li F, Rosenberg H F. Hyperglycosylation of eosinophil ribonucleases in a promyelocytic leukemia cell line and in differentiated peripheral blood progenitor cells. J Leukoc Biol 1995; 58:49-54; Tiffany H L, Alkhatib G, Combadiere C, Berger E A, Murphy P M. CC chemokine receptors 1 and 3 are differentially regulated by IL-5 during maturation of eosinophilic HL-60 cells. J Immunol 1998; 160:1385-1392). U937 cells (ATCC CRL-1593.2) were grown at 37° C. in an atmosphere of 5% CO2 in complete medium consisting of RPMI 1640 with L-glutamine supplemented with 10% FBS, 50 IU/ml penicillin, and 50 μg/mL streptomycin. NK-92 cells (ATCC CRL-2407) were maintained in alpha-MEM medium (Sigma-Aldrich Co.) supplemented with 20% FBS, 100 U/ml of interleukin-2 (IL-2) (Chemicon International, Inc., Temecula, CA), 5×10^−5 M of 2-mercaptoethanol, 50 IU/mL penicillin, and 50 μg/ml streptomycin at 37° C. in an atmosphere containing 5% CO2. Cell morphology was judged by assessment of Wright-Giemsa-stained cells. Viability of cells harvested for experiments was assessed by trypan blue exclusion and populations of cells with viability >95% were used.
(§2) HL-60 clone 15, U937, and NK-92 cells were washed and resuspended at 2.5×10^6 cells/ml in phenol red-free RPMI-1640 (Cellgro; Mediatech, Inc.) for all degranulation assays. Aliquots of cells in 15 ml tubes were preincubated with indicated concentrations of MANS, RNS, or a test peptide for 10 min at 37° C. The cells then were stimulated with PMA for up to 2 hr. A control reference (PMA control reference) was established for each cell type using HL-60 clone 15, U937, and NK-92 cells, respectively, which were washed and resuspended at 2.5×10^6 cells/ml in phenol red-free RPMI-1640 and stimulated with PMA but in the absence of MANS, RNS, or a test peptide for the same time periods. The reaction was terminated by placing tubes on ice and centrifuging cells at 400 g for 5 min at 4° C.
(§3) For measurements of released MPO from neutrophils and released lysozyme from U937 cells, we were able to quantify secretion by using as standards human MPO and egg white […], respectively. For released EPO from HL-60 clone 15 cells and for released granzyme from NK-92 cells, no standards were available to use for quantification. […] To measure intracellular EPO in HL-60 clone 15 cells and intracellular granzyme in NK-92 cells, appropriate aliquots of 0.1% triton X-100-lysed cells were taken for quantification of intracellular granule proteins as described below. All treatments were expressed as percentage of control to minimize variability between cultures.
EPO activity released by HL-60 clone 15 cells was assayed using TMB according to a previously established technique (Lacy P, Mahmudi-Azer S, Bablitz B, Hagen S C, Velazquez J R, Man S F, Moqbel R. Rapid mobilization of intracellularly stored RANTES in response to interferon-gamma in human eosinophils. Blood 1999; 94:23-32). Thus, 100 μL of TMB substrate solution was added to 50 μL=microliters) of sample in a 96-well microplate and incubated at room temperature for 15 min (min=minutes). […]

U937 cells = assay: PMA-stimulated lysozyme secretion by U937 cells; assay type: cell-based, human; details: 50 μM test peptide, two hour incubation with 100 nM PMA; U937 cells
Experimental: as §1, §2, §3
Lysozyme secreted by U937 cells was measured using a spectrophotometric assay as described previously (Balboa M A, Saez Y, Balsinde J. Calcium-independent phospholipase A2 is required for lysozyme secretion in U937 promonocytes. J Immunol 2003; 170:5276-5280) with slight modification. Thus, 100 μL of sample was mixed with 100 μL of a Micrococcus lysodeikticus (Sigma-Aldrich Co.) suspension (0.3 mg/ml in 0.1 M sodium phosphate buffer, pH 7.0) in a 96-well microplate. The decrease in absorbance at 450 nm was measured at room temperature. […]

[1] = Qualitative solubility of peptides in 0.5 N saline, pH 6.5

In the case of `CCCCCCCCCCCCCC(=O)NCC(=O)N[C@@H](C)C(=O)N[C@@H](CCC(N)=O)C(=O)N[C@@H](Cc1ccccc1)C(=O)N[C@@H](CO)C(=O)N[C@@H](CCCCN)C(=O)N[C@H](C(=O)N[C@@H](C)C(=O)N[C@@H](C)C(=O)N[C@@H](CCCCN)C(=O)NCC(=O)N[C@@H](CCC(=O)O)C(=O)N[C@@H](C)C(=O)N[C@@H](C)C(=O)N[C@@H](C)C(=O)N[C@@H](CCC(=O)O)C(=O)N[C@@H](CCCNC(=N)N)C(=O)N1CCC[C@H]1C(=O)NCC(=O)N[C@@H](CCC(=O)O)C(=O)O)[C@@H](C)O` (Myristoyl-GAQFSKTAAKGEAAAERPGE-OH; C-terminus assumed), the “% Inhibition EPO” value (HL-60 clone 15 cells) is reported as 33.6% and the “% Inhibition Lysozyme” value (U937 cells) is reported as 99%.
In the case of `CCCCCCCCCCCCCC(=O)N[C@@H](CO)C(=O)N[C@@H](CCCCN)C(=O)N[C@H](C(=O)N[C@@H](C)C(=O)N[C@@H](C)C(=O)N[C@@H](CCCCN)C(=O)NCC(=O)N[C@@H](CCC(=O)O)C(=O)N[C@@H](C)C(=O)N[C@@H](C)C(=O)N[C@@H](C)C(=O)N[C@@H](CCC(=O)O)C(=O)N[C@@H](CCCNC(=N)N)C(=O)N1CCC[C@H]1C(=O)NCC(=O)N[C@@H](CCC(=O)O)C(=O)N[C@@H](C)C(=O)N[C@@H](C)C(=O)N[C@H](C(=O)N[C@@H](C)C(=O)O)C(C)C)[C@@H](C)O` (Myristoyl-SKTAAKGEAAAERPGEAAVA-OH; C-terminus assumed), the “% Inhibition EPO” value (HL-60 clone 15 cells) is reported as 0%, the “% Inhibition Lysozyme” value (U937 cells) is reported as 99% and the solubility [1] is reported as over 80 mg/mL.
In the case of `CC(=O)N[C@@H](C)C(=O)N[C@@H](C)C(=O)NCC(=O)N[C@@H](CCC(=O)O)C(=O)O` [Ac-AAGE, AAGE] (Ac-AAGE-OH; C-terminus assumed), the “% Inhibition EPO” value (HL-60 clone 15 cells) is reported as 39.1%, the “% Inhibition Lysozyme” value (U937 cells) is reported as 36.9% and the solubility [1] is reported as over 200 mg/mL.
For `CC(=O)N[C@@H](C)C(=O)N[C@@H](CCCCN)C(=O)NCC(=O)N[C@@H](CCC(=O)O)C(=O)O` [Ac-AKGE, AKGE] (Ac-AKGE-OH; C-terminus assumed), the “% Inhibition EPO” value (HL-60 clone 15 cells) was 87.6%, the “% Inhibition Lysozyme” value (U937 cells) was 7.2% and the solubility [1] was over 200 mg/mL.
For `CC(=O)N[C@@H](C)C(=O)N[C@@H](CCCCN)C(=O)NCC(=O)N[C@@H](CCC(=O)O)C(N)=O` [Ac-AKGE-NH2, AKGE] (Ac-AKGE-NH2), the “% Inhibition EPO” value (HL-60 clone 15 cells) was 45.6%, the “% Inhibition Lysozyme” value (U937 cells) was 26.8% and the solubility [1] was over 200 mg/mL.
With `CCCCCCCCCCCCCC(=O)N[C@@H](C)C(=O)N[C@@H](C)C(=O)N[C@@H](C)C(=O)N[C@@H](CCC(=O)O)C(=O)N[C@@H](CCCNC(=N)N)C(=O)N1CCC[C@H]1C(=O)NCC(=O)N[C@@H](CCC(=O)O)C(=O)N[C@@H](C)C(=O)N[C@@H](C)C(=O)N[C@H](C(=O)N[C@@H](C)C(=O)O)C(C)C` [MA-AAAERPGEAAVA, AAAERPGEAAVA] (Myristoyl-AAAERPGEAAVA-OH; C-terminus assumed) the “% Inhibition EPO” value (HL-60 clone 15 cells) was 21.6%, the “% Inhibition Lysozyme” value (U937 cells) was 98% and the solubility [1] was under 20 mg/mL.
In the case of `CCCCCCCCCCCCCC(=O)N[C@@H](C)C(=O)N[C@@H](C)C(=O)N[C@@H](CCCCN)C(=O)NCC(=O)N[C@@H](CCC(=O)O)C(=O)N[C@@H](C)C(=O)O` [MA-AAKGEA, AAKGEA] (Myristoyl-AAKGEA-OH; C-terminus assumed), the “% Inhibition EPO” value (HL-60 clone 15 cells) is reported as 31.4%, the “% Inhibition Lysozyme” value (U937 cells) is reported as 28.6% and the solubility [1] is reported as under 1 mg/mL.
With `CCCCCCCCCCCCCC(=O)N[C@@H](C)C(=O)N[C@@H](CCCCN)C(=O)NCC(=O)N[C@@H](CCC(=O)O)C(=O)O` [MA-AKGE, AKGE] (Myristoyl-AKGE-OH; C-terminus assumed) the “% Inhibition EPO” value (HL-60 clone 15 cells) was 0%, the “% Inhibition Lysozyme” value (U937 cells) was 28.6% and the solubility [1] was under 1 mg/mL.
In the case of `CCCCCCCCCCCCCC(=O)N[C@@H](C)C(=O)N[C@@H](CCCCN)C(=O)NCC(=O)N[C@@H](CCC(=O)O)C(=O)N[C@@H](C)C(=O)N[C@@H](C)C(=O)N[C@@H](C)C(=O)N[C@@H](CCC(=O)O)C(=O)N[C@@H](CCCNC(=N)N)C(=O)N1CCC[C@H]1C(=O)NCC(=O)N[C@@H](CCC(=O)O)C(=O)N[C@@H](C)C(=O)N[C@@H](C)C(=O)N[C@H](C(=O)N[C@@H](C)C(=O)O)C(C)C` [MA-AKGEAAAERPGEAAVA, AKGEAAAERPGEAAVA] (Myristoyl-AKGEAAAERPGEAAVA-OH; C-terminus assumed), the “% Inhibition EPO” value (HL-60 clone 15 cells) is reported as 18.1%, the “% Inhibition Lysozyme” value (U937 cells) is reported as 98% and the solubility [1] is reported as over 80 mg/mL.
In the case of `CCCCCCCCCCCCCC(=O)NCC(=O)N[C@@H](C)C(=O)N[C@@H](CCC(N)=O)C(=O)N[C@@H](Cc1ccccc1)C(=O)N[C@@H](CO)C(=O)N[C@@H](CCCCN)C(=O)N[C@H](C(=O)N[C@@H](C)C(=O)N[C@@H](C)C(=O)N[C@@H](CCCCN)C(=O)O)[C@@H](C)O` [MA-GAQFSKTAAK, GAQFSKTAAK] (Myristoyl-GAQFSKTAAK-OH; C-terminus assumed), the “% Inhibition EPO” value (HL-60 clone 15 cells) is reported as 37.4%, the “% Inhibition Lysozyme” value (U937 cells) is reported as 56.6% and the solubility [1] is reported as over 10 mg/mL.
With `CCCCCCCCCCCCCC(=O)NCC(=O)N[C@@H](C)C(=O)N[C@@H](CCC(N)=O)C(=O)N[C@@H](Cc1ccccc1)C(=O)N[C@@H](CO)C(=O)N[C@@H](CCCCN)C(=O)N[C@H](C(=O)N[C@@H](C)C(=O)N[C@@H](C)C(=O)N[C@@H](CCCCN)C(=O)NCC(=O)N[C@@H](CCC(=O)O)C(=O)N[C@@H](C)C(=O)N[C@@H](C)C(=O)N[C@@H](C)C(=O)N[C@@H](CCC(=O)O)C(=O)O)[C@@H](C)O` [MA-GAQFSKTAAKGEAAAE, GAQFSKTAAKGEAAAE] (Myristoyl-GAQFSKTAAKGEAAAE-OH; C-terminus assumed) the “% Inhibition EPO” value (HL-60 clone 15 cells) was 30.3%, the “% Inhibition Lysozyme” value (U937 cells) was 99% and the solubility [1] was over 2 mg/mL.
With `CCCCCCCCCCCCCC(=O)N[C@@H](CCCNC(=N)N)C(=O)N1CCC[C@H]1C(=O)NCC(=O)N[C@@H](CCC(=O)O)C(=O)N[C@@H](C)C(=O)N[C@@H](C)C(=O)N[C@H](C(=O)N[C@@H](C)C(=O)O)C(C)C` [MA-RPGEAAVA, RPGEAAVA] (Myristoyl-RPGEAAVA-OH; C-terminus assumed) the “% Inhibition EPO” value (HL-60 clone 15 cells) was 0% and the “% Inhibition Lysozyme” value (U937 cells) was 99%.
With “Ac-AAAERPGEAAVA [Ac-AAAERPGEAAVA, AAAERPGEAAVA]” the “% Inhibition EPO” value (HL-60 clone 15 cells) was 51.2% and the “% Inhibition Lysozyme” value (U937 cells) was 29.5%.
For “Ac-AKGEAAAERPGEAAVA [Ac-AKGEAAAERPGEAAVA, AKGEAAAERPGEAAVA]”, the “% Inhibition EPO” value (HL-60 clone 15 cells) was 72.3% and the “% Inhibition Lysozyme” value (U937 cells) was 34.3%.
In the case of “Ac-GAQFSKTAAKGEAAAE [Ac-GAQFSKTAAKGEAAAE, GAQFSKTAAKGEAAAE]”, the “% Inhibition EPO” value (HL-60 clone 15 cells) is reported as 56.6% and the “% Inhibition Lysozyme” value (U937 cells) is reported as 8.4%.
For Ac-GAQFSKTAAKGEAAAERPGE, the “% Inhibition EPO” value (HL-60 clone 15 cells) was 48.8% and the “% Inhibition Lysozyme” value (U937 cells) was 0.0%.
With Ac-RPGEAAVA [Ac-RPGEAAVA, RPGEAAVA] the “% Inhibition EPO” value (HL-60 clone 15 cells) was 45.8% and the “% Inhibition Lysozyme” value (U937 cells) was 0.0%.
